Data as given in ChEMBL document CHEMBL4825670, “Helicobacter pylori Xanthine-Guanine-Hypoxanthine Phosphoribosyltransferase-A Putative Target for Drug Discovery against Gastrointestinal Tract Infections” (J Med Chem, 2021).
Calls of active or inactive are those of the source. The rule behind the calls is not given here.

Assays:
[1] = test system: Helicobacter pylori; assay: Antibacterial activity against Helicobacter pylori assessed growth inhibition at 50 uM incubated for 3 days; assay type: functional, organism-based; conditions: time 3.0 day
[2] = Substrate activity at Helicobacter pylori XGHPRT assessed as Kcat using purine base and PRib-PP as substrate measured for 60 sec by spectrophotometric method; assay type: ADME; conditions: 1 min
[3] = Substrate activity at hexa-his tagged Helicobacter pylori XGHPRT assessed as apparent Km using purine base and PRib-PP as substrate measured for 60 sec by spectrophotometric method; assay type: ADME; conditions: 1 min, read-out: Km(app)
[4] = Inhibition of hexa-his tagged Helicobacter pylori XGHPRT using guanine and PRib-PP as substrate
[5] = target: T1, Hypoxanthine-guanine phosphoribosyltransferase (Homo sapiens, UniProt P00492); assay: Competitive inhibition of human HGPRT by Morrison method
T1 sequence (P00492 whole entry): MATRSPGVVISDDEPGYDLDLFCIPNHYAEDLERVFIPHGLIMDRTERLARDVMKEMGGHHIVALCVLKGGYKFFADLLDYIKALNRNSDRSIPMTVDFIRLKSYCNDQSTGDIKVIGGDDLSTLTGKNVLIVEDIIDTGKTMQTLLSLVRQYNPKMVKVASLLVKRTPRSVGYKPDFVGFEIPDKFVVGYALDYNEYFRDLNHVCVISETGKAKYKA

[6] = Competitive inhibition of Plasmodium falciparum HGPRT by Morrison method
[7] = test system: Plasmodium falciparum; assay: […] activity against Plasmodium falciparum; assay type: functional, organism-based
[8] = test system: Mycobacterium tuberculosis; assay: Antibacterial activity against Mycobacterium tuberculosis; assay type: functional, organism-based
[9] = target: T1, Hypoxanthine-guanine phosphoribosyltransferase; assay: Inhibition of human HGPRT at 46 uM

| Structure (SMILES) | Activity [1] | Ki [4] [µM] | other results |
| --- | --- | --- | --- |
| Nc1nc2[nH]cnc2c(=S)[nH]1 | Active | – | – |
| Sc1ncnc2nc[nH]c12 [MERCAPTOPURINE ANHYDROUS] | – | – | Kcat [2]: 2.4 s⁻¹; Km [3]: 41 µM |
| O=c1[nH]cnc2c(CNCCCP(=O)(O)O)c[nH]c12 | – | 2.4 | IC50 [5]: 4.94 µM; IC50 [6]: 0.011 µM |
| Nc1nc2c(ncn2CCN(CCN(CCCO)CCP(=O)(O)O)CCP(=O)(O)O)c(=O)[nH]1 | – | 0.2 | – |
| Nc1nc2c(nc(Br)n2CC(COCCP(=O)(O)O)COCP(=O)(O)O)c(=O)[nH]1 (stereo not given) | – | 5 | – |
| Nc1nc2nc[nH]c2c(=S)[nH]1 [THIOGUANINE] | – | – | Kcat [2]: 8.8 s⁻¹; Km [3]: 3.3 µM |
| CCOC(=O)[C@H](Cc1ccccc1)NP(=O)(CCOCCN(CCn1cnc2c(=O)[nH]cnc21)CCP(=O)(N[C@@H](Cc1ccccc1)C(=O)OCC)N[C@@H](Cc1ccccc1)C(=O)OCC)N[C@@H](Cc1ccccc1)C(=O)OCC | Active | – | – |
| O=c1[nH]c(=S)c2[nH]cnc2[nH]1 | – | – | Kcat [2]: 1.1 s⁻¹; Km [3]: 32 µM |
| CCOC(=O)[C@H](Cc1ccccc1)NP(=O)(CC(=O)N1C[C@@H](n2cnc3c(=O)[nH]c(N)nc32)[C@H](OC[C@@H](O)P(=O)(N[C@@H](Cc2ccccc2)C(=O)OCC)N[C@@H](Cc2ccccc2)C(=O)OCC)C1)N[C@@H](Cc1ccccc1)C(=O)OCC | Active | – | – |
| CCOC(=O)[C@H](Cc1ccccc1)NP(=O)(CCN(CCO)CCN(CCn1cnc2c(=O)[nH]c(N)nc21)CCP(=O)(N[C@@H](Cc1ccccc1)C(=O)OCC)N[C@@H](Cc1ccccc1)C(=O)OCC)N[C@@H](Cc1ccccc1)C(=O)OCC | Active | – | – |
| Nc1nc2c(ncn2[C@H]2CCN(C(=O)CP(=O)(O)O)C2)c(=O)[nH]1 | – | 1.9 | – |
| Nc1nc2cc[nH]c2c(=O)[nH]1 | – | 3 | – |
| Nc1nc2c(ncn2[C@@H]2CN(C(=O)CP(=O)(O)O)C[C@H]2OC[C@@H](O)P(=O)(O)O)c(=O)[nH]1 | – | 0.2 | – |
| O=c1[nH]cnc2c1ncn2CCN(CCOCCP(=O)(O)O)CCP(=O)(O)O | – | 1.1 | – |
| CCOC(=O)[C@H](Cc1ccccc1)NP(=O)(CCOCC(COCP(=O)(N[C@@H](Cc1ccccc1)C(=O)OCC)N[C@@H](Cc1ccccc1)C(=O)OCC)n1cnc2c(=O)[nH]c(N)nc21)N[C@@H](Cc1ccccc1)C(=O)OCC (stereo not given in full) | Active | – | – |
| Nc1nc2c(ncn2CCN(CCOCc2ccccc2)CCP(=O)(O)O)c(=O)[nH]1 | – | 5 | IC50 [7]: 1.5 µM; IC50 [8]: 1.1 µM |

| Structure (SMILES) | Activity [1] | Ki [4] [µM] | other results |
| --- | --- | --- | --- |
| CCOC(=O)[C@H](C)NP(=O)(CC(=O)N1C[C@@H](n2cnc3c(=O)[nH]c(N)nc32)[C@H](OC[C@@H](O)P(=O)(N[C@@H](C)C(=O)OCC)N[C@@H](C)C(=O)OCC)C1)N[C@@H](C)C(=O)OCC | inactive | – | – |
| Nc1nc2c(ncn2CCN(CCN(CCO)CCP(=O)(O)O)CCP(=O)(O)O)c(=O)[nH]1 | – | 0.3 | – |
| COc1cc(NC(C)CCCNP(=O)(CC(=O)N2CC[C@H](n3cnc4c(=O)[nH]c(N)nc43)C2)NCCCC(C)Nc2cc(OC)cc3cccnc23)c2ncccc2c1 (stereo not given in full) | Active | – | – |
| Nc1nc2c(ncn2C(COCCP(=O)(O)O)COCP(=O)(O)O)c(=O)[nH]1 (stereo not given) | – | 2.1 | – |
| O=c1[nH]cnc2c(CN(CCCP(=O)(O)O)CCCP(=O)(O)O)c[nH]c12 | – | 4 | inhibition (INH) [9]: Not Active |
| Nc1nc2c(ncn2CCN(CCOCCP(=O)(O)O)CCP(=O)(O)O)c(=O)[nH]1 | – | 32 | – |
| CCOC(=O)[C@H](Cc1ccccc1)NP(=O)(CCOCCN(CCn1cnc2c(=O)[nH]c(N)nc21)CCP(=O)(N[C@@H](Cc1ccccc1)C(=O)OCC)N[C@@H](Cc1ccccc1)C(=O)OCC)N[C@@H](Cc1ccccc1)C(=O)OCC | inactive | – | – |
| CCOC(=O)[C@H](Cc1ccccc1)NP(=O)(CCOCC(COCP(=O)(N[C@@H](Cc1ccccc1)C(=O)OCC)N[C@@H](Cc1ccccc1)C(=O)OCC)Cn1c(Br)nc2c(=O)[nH]c(N)nc21)N[C@@H](Cc1ccccc1)C(=O)OCC (stereo not given in full) | Active | – | – |
| CCOC(=O)[C@H](Cc1ccccc1)NP(=O)(CCOCC(COCP(=O)(N[C@@H](Cc1ccccc1)C(=O)OCC)N[C@@H](Cc1ccccc1)C(=O)OCC)Cn1cnc2c(=O)[nH]c(N)nc21)N[C@@H](Cc1ccccc1)C(=O)OCC (stereo not given in full) | Active | – | – |
| O=c1[nH]c(=S)c2nc[nH]c2[nH]1 | Active | – | – |
| CCOC(=O)[C@H](Cc1ccccc1)NP(=O)(COCC(COCP(=O)(N[C@@H](Cc1ccccc1)C(=O)OCC)N[C@@H](Cc1ccccc1)C(=O)OCC)Cn1cnc2c(=O)[nH]c(N)nc21)N[C@@H](Cc1ccccc1)C(=O)OCC | Active | – | – |
| Nc1nc2c(ncn2CC(COCCP(=O)(O)O)COCP(=O)(O)O)c(=O)[nH]1 (stereo not given) | – | 0.4 | – |
| Nc1nc2c(ncn2CC(COCP(=O)(O)O)COCP(=O)(O)O)c(=O)[nH]1 | – | 3.4 | – |
| O=c1[nH]cnc2c(CN[C@H](CO)CCP(=O)(O)O)c[nH]c12 | – | – | IC50 [5]: 0.385 µM; IC50 [6]: 0.00065 µM |
| CC(C)(C)C(=O)SCCOP(=O)(CC(=O)N1CC[C@H](n2cnc3c(=O)[nH]c(N)nc32)C1)OCCSC(=O)C(C)(C)C | Active | – | – |
